Measurements published in patent EP4483954A1 (Masarykova Univerzita, priority 2023, dated 2025).

Columns and labels:
Format in all cases: biochemical
TRB2(h) = target: T1, TRB2(h) (Homo sapiens, UniProt Q92519); test: radiometric kinase assay (KinaseProfiler, Eurofins), TRB2; conditions: in vitro radiometric kinase assay, tested at 1 nM to 10 000 nM, no pre-incubation; read-out: inhibitory activities (IC50 values) TRB2
T1 construct: purchased Eurofins (KinaseProfiler)
T1 sequence (Q92519 1-343): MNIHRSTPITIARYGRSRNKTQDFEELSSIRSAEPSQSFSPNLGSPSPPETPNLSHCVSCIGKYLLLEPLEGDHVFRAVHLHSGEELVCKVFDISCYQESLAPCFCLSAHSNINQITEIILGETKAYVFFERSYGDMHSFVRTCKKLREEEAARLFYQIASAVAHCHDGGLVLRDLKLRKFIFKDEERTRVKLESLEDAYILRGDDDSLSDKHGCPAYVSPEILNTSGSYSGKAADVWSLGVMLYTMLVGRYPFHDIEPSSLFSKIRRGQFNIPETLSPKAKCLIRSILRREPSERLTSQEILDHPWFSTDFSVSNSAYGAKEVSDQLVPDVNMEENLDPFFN
Method: (§1) The compounds were profiled in the radiometric assays (KinaseProfiler, Eurofins).
(§2) Briefly, kinases were diluted in the buffer shown below prior to addition to the reaction mix: • CDKL3, TAF1L: 20 mM Tris/HCl pH 8.5, 0.2 mM EDTA, 0.1% β-mercaptoethanol, 0.01% Brij-35, 5% glycerol, 1 mg/ml BSA; • Haspin: 15 mM MOPS, 0.75 mM EDTA, 0.0075% Brij-35, 3.75% Glycerol, 150 mM NaCl, 0.1% β-mercaptoethanol, 1 mg/mLBSA; • CDKL4, CLK2, PIM1, TRB2: […], 1 mM EDTA, 0.01% Brij-35, 5% Glycerol, 0.1% β-mercaptoethanol, 1 mg/mL BSA.
(§3) All compounds were prepared to 50x final assay concentration in 100% DMSO. This working stock of the compound was added to the assay well as the first component in the reaction, followed by the remaining components as detailed in the general assay protocols below. There was no pre-incubation step between the compound and the kinase prior to initiation of the reaction.
(§4) TRB2(h) was incubated with 8 mM MOPS pH 7.0, 0.2 mM EDTA, 250 µM RRRFRPASPLRGPPK (SEQ ID NO. 1), 10 mM magnesium acetate and γ-^33P-ATP (specific activity and concentration as required). The reaction was initiated by the addition of the Mg/ATP mix. After incubation for 120 minutes at room temperature, the reaction was stopped by the addition of phosphoric acid to a concentration of 0.5%. An aliquot of the stopped reaction was spotted onto a filter and washed four times for 4 minutes in 0.425% phosphoric acid and once in methanol prior to drying and scintillation counting.
(§5) Kinase activity data were expressed as the percent remaining kinase activity in tested samples compared to the vehicle (DMSO) reactions. The compounds were tested at the following concentrations: 1 nM, 3 nM, 10 nM, 30 nM, 100 nM, 300 nM, 1000 nM, 3000 nM, and 10 000 nM; IC50 values and curve fits were then obtained.

CLK2 (h) = target: T2, CLK2 (h) (Homo sapiens, UniProt P49760); test: radiometric kinase assay (KinaseProfiler, Eurofins), CLK2; conditions: in vitro radiometric kinase assay, tested at 1 nM to 10 000 nM, no pre-incubation; read-out: inhibitory activities (IC50 values) CLK2
T2 construct: purchased Eurofins (KinaseProfiler)
T2 sequence (P49760 whole entry): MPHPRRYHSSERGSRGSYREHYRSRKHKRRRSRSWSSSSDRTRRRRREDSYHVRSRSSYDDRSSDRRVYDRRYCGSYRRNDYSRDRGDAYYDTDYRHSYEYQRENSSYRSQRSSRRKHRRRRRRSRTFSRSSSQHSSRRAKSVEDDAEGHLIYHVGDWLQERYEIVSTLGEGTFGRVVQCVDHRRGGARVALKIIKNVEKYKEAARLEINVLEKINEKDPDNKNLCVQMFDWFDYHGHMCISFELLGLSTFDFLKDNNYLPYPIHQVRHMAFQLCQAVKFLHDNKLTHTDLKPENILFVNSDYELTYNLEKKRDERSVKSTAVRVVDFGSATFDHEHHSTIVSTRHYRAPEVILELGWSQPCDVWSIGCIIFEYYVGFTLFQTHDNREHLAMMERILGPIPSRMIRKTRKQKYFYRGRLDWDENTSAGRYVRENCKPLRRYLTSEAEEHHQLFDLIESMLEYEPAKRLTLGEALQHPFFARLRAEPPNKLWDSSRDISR
Method: as §1, §2, §3
CLK2 (h) was incubated with 8 mM MOPS pH 7.0, 0.2 mM EDTA, 20 µM […](p)EDEEE (SEQ ID NO. 2), 10 mM magnesium acetate and γ-^33P-ATP (specific activity and concentration as required). The reaction was initiated by the addition of the Mg/ATP mix. After incubation for 40 minutes at room temperature, the reaction was stopped by the addition of phosphoric acid to a concentration of 0.5%. An aliquot of the reaction was then spotted onto a filter and washed four times for 4 minutes in 0.425% phosphoric acid and once in methanol prior to drying and scintillation counting.
as §5

DYRK2 (h) = target: T3, DYRK2 (h) (Homo sapiens, UniProt Q92630); test: radiometric kinase assay (KinaseProfiler, Eurofins), DYRK2; conditions: in vitro radiometric kinase assay, tested at 1 nM to 10 000 nM, no pre-incubation; read-out: inhibitory activities (IC50 values) DYRK2
T3 construct: purchased Eurofins (KinaseProfiler)
T3 sequence (Q92630 1-601): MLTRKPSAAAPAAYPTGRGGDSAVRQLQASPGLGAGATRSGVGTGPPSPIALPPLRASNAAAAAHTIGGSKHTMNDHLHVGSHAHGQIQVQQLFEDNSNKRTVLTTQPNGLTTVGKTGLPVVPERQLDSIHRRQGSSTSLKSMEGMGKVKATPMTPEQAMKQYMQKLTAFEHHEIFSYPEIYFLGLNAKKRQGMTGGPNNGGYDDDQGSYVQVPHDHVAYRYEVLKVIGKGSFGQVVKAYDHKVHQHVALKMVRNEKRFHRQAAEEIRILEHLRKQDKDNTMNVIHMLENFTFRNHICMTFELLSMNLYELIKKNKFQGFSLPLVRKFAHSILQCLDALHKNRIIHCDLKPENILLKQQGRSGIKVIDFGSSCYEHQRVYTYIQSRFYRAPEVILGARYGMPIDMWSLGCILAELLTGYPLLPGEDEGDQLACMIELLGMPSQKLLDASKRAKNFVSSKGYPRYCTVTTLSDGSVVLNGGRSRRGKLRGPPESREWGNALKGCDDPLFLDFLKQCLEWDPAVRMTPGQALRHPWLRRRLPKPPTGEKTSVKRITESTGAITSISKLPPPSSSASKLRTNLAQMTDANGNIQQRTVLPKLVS
Method: as §1, §3
DYRK2 (h) was incubated with 8 mM MOPS pH 7.0, 0.2 mM EDTA, 2 mg/mL casein, 10 mM magnesium acetate and γ-^33P-ATP (specific activity and concentration as required). The reaction was initiated by the addition of the Mg/ATP mix. After incubation for 40 minutes at room temperature, the reaction was stopped by the addition of phosphoric acid to a concentration of 0.5%. An aliquot of the reaction was then spotted onto a filter and washed four times for 4 minutes in 0.425% phosphoric acid and once in methanol prior to drying and scintillation counting.
as §5

TAF1L(h) = target: T4, TAF1L(h) (Homo sapiens, UniProt Q8IZX4); test: radiometric kinase assay (KinaseProfiler, Eurofins), TAF1L; conditions: in vitro radiometric kinase assay, tested at 1 nM to 10 000 nM, no pre-incubation; read-out: inhibitory activities (IC50 values) TAF1L
T4 construct: purchased Eurofins (KinaseProfiler)
T4 sequence (Q8IZX4 whole entry): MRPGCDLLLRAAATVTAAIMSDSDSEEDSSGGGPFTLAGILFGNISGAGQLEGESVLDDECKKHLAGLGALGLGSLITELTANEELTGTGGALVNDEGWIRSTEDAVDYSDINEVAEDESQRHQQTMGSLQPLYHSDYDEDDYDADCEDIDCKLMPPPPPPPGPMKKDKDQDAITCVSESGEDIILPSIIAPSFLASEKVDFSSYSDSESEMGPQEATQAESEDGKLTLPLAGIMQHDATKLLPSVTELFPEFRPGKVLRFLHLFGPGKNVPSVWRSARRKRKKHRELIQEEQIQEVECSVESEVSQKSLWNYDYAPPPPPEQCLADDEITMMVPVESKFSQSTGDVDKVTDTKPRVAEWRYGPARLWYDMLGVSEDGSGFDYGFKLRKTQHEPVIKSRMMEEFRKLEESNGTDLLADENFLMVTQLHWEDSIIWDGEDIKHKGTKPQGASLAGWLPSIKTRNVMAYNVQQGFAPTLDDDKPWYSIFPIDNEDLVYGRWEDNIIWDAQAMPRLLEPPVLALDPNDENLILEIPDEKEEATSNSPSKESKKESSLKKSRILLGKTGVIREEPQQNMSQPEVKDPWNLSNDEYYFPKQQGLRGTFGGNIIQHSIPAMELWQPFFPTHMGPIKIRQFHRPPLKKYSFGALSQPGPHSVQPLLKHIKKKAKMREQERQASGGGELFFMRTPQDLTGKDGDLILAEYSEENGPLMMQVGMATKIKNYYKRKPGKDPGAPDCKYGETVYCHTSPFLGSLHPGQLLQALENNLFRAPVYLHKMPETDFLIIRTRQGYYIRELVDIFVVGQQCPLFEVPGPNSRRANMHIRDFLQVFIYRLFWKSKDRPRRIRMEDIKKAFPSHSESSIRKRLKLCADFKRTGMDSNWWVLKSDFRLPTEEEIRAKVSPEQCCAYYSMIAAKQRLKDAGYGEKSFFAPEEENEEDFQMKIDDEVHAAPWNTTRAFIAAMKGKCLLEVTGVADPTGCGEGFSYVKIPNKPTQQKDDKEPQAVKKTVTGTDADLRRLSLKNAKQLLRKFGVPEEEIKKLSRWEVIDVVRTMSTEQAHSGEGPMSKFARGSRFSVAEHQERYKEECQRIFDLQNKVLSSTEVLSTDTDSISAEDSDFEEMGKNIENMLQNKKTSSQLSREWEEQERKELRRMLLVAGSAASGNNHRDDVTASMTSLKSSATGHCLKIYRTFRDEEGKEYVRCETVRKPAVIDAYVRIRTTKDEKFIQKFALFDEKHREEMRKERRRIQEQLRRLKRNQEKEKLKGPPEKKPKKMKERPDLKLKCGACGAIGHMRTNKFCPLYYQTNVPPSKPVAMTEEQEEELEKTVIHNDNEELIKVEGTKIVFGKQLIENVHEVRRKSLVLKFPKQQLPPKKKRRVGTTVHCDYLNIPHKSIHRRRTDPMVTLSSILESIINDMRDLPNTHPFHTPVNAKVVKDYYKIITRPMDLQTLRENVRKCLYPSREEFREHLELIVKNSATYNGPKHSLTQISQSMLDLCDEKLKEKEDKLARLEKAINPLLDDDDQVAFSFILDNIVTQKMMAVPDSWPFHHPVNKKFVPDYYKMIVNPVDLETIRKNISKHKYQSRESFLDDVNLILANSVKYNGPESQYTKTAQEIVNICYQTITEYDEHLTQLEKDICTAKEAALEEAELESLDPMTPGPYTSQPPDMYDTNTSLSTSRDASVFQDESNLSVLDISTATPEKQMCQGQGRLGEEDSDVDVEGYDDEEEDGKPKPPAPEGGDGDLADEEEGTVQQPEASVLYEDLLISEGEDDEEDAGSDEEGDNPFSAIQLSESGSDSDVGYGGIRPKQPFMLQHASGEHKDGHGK
Method: as §1, §2, §3
as §4, with “TAF1L(h)” for “TRB2(h)”, “20” for “8”, “Tris/HCl” for “MOPS”, “8.5,” for “7.0,”
as §5

Row | IC50 (TRB2(h)) [nM] | IC50 (CLK2 (h)) [nM] | IC50 (DYRK2 (h)) [nM] | IC50 (TAF1L(h)) [nM] | SMILES
1 | 3000 to 10000 | 3000 to 10000 | 3000 to 10000 | 3000 to 10000 | Cc1cc2scc(-c3ccncc3)c2nc1-c1ccn(C)n1 [Preparative Example 151, 6-methyl-5-(1-methyl-1H-pyrazol-3-yl)-3-(pyridin-4-yl)thieno[3,2-b]pyridine]
2 | 20 to 99 | 500 to 3000 | 100 to 499 | 100 to 499 | Cn1cc(-c2ccc3scc(-c4ccc5ncnn5c4)c3n2)cn1 [Preparative Example 53, 3-([1,2,4]-triazolo[1,5-a]pyridin-6-yl)-5-(1-methyl-1H-pyrazol-4-yl)thieno[3,2-b]pyridine]
3 | 500 to 3000 | 3000 to 10000 | 3000 to 10000 | 500 to 3000 | Cc1nn(C)c(C)c1-c1ccc2scc(-c3ccncc3)c2n1 [Preparative Example 85, 3-(pyridin-4-yl)-5-(1,3,5-trimethyl-1H-pyrazol-4-yl)thieno[3,2-b]pyridine]
4 | 3000 to 10000 | 3000 to 10000 | 3000 to 10000 | 3000 to 10000 | c1ccc(-c2csc3ccc(-c4cnoc4)nc23)cc1 [Preparative Example 124, 4-(3-phenylthieno[3,2-b]pyridin-5-yl)isoxazole]
5 | 3000 to 10000 | 3000 to 10000 | 3000 to 10000 | 3000 to 10000 | Fc1cc(-c2ccc3scc(-c4ccccc4)c3n2)cc(F)c1F [Preparative Example 122, 3-phenyl-5-(3,4,5-trifluorophenyl)thieno[3,2-b]pyridine]
6 | 100 to 499 | 500 to 3000 | 3000 to 10000 | 100 to 499 | Cn1cc(-c2cc(Cl)c3scc(-c4ccncc4)c3n2)cn1 [Preparative Example 162, 7-chloro-5-(1-methyl-1H-pyrazol-4-yl)-3-(pyridin-4-yl)thieno[3,2-b]pyridine]

Second part, the molecule before the results:

Row | SMILES | IC50 (TRB2(h)) [nM] | IC50 (CLK2 (h)) [nM] | IC50 (DYRK2 (h)) [nM] | IC50 (TAF1L(h)) [nM]
7 | Cn1ccc(-c2cc(Cl)c3scc(-c4ccncc4)c3n2)n1 [Preparative Example 163, 7-chloro-5-(1-methyl-1H-pyrazol-3-yl)-3-(pyridin-4-yl)thieno[3,2-b]pyridine] | 500 to 3000 | 3000 to 10000 | 3000 to 10000 | 500 to 3000
8 | Cn1cc(-c2ccc3scc(-c4ccncc4)c3n2)cn1 [Preparative Example 13, 5-(1-methyl-1H-pyrazol-4-yl)-3-(pyridin-4-yl)thieno[3,2-b]pyridine] | 500 to 3000 | 3000 to 10000 | 500 to 3000 | 100 to 499
9 | CCn1cc(-c2ccc3scc(-c4ccncc4)c3n2)cn1 [Preparative Example 77, 5-(1-ethyl-1H-pyrazol-4-yl)-3-(pyridin-4-yl)thieno[3,2-b]pyridine] | 500 to 3000 | 3000 to 10000 | 500 to 3000 | 500 to 3000
10 | COc1cc(-c2ccn(C)n2)nc2c(-c3ccncc3)csc12 [Preparative Example 165, 7-methoxy-5-(1-methyl-1H-pyrazol-3-yl)-3-(pyridin-4-yl)thieno[3,2-b]pyridine] | 500 to 3000 | 3000 to 10000 | 3000 to 10000 | 500 to 3000
11 | COc1cc(-c2csc3ccc(-c4cnn(C)c4)nc23)ccn1 [Preparative Example 17, 3-(2-methoxypyridin-4-yl)-5-(1-methyl-1H-pyrazol-4-yl)thieno[3.2-b]pyridine] | 500 to 3000 | 500 to 3000 | 100 to 499 | 100 to 499
12 | Cn1cc(-c2ccc3scc(-c4ccnnc4)c3n2)cn1 [Preparative Example 40, 5-(1-methyl-1H-pyrazol-4-yl)-3-(pyridazin-4-yl)thieno[3,2-b]-pyridine] | 500 to 3000 | 3000 to 10000 | 500 to 3000 | 100 to 499
13 | Cn1cc(-c2ccc3scc(-c4cnn(Cc5ccccc5)c4)c3n2)cn1 | 500 to 3000 | 3000 to 10000 | 3000 to 10000 | 100 to 499
14 | Cc1cc(-c2csc3ccc(-c4cnn(C)c4)nc23)ccn1 [Preparative Example 15, 5-(1-methyl-1H-pyrazol-4-yl)-3-(2-methylpyridin-4-yl)-thieno[3,2-b]pyridine] | 100 to 499 | 500 to 3000 | 500 to 3000 | 100 to 499
15 | c1ccc(-c2csc3ccc(-c4ccoc4)nc23)cc1 [Preparative Example 123, 5-(furan-3-yl)-3-phenylthieno[3,2-b]pyridine] | 3000 to 10000 | 3000 to 10000 | 3000 to 10000 | 3000 to 10000
16 | Cn1ncc(-c2ccc3scc(-c4ccncc4)c3n2)c1CC1CC1 [Preparative Example 82, 5-(5-(cyclopropylmethyl)-1-methyl-1H-pyrazol-4-yl)-3-(pyridin-4-yl)thieno[3,2-b]pyridine] | 100 to 499 | 500 to 3000 | 3000 to 10000 | 500 to 3000
17 | FC(F)(F)n1cc(-c2ccc3scc(-c4ccncc4)c3n2)cn1 [Preparative Example 78, 3-(pyridin-4-yl)-5-(1-(trifluoromethyl)-1H-pyrazol-4-yl)thieno[3,2-b]pyridine] | 3000 to 10000 | 3000 to 10000 | 3000 to 10000 | 3000 to 10000
18 | Cn1cc(-c2ccc3scc(-c4cnn(C)c4)c3n2)cn1 [Preparative Example 63, 3,5-bis(1-methyl-1H-pyrazol-4-yl)thieno[3,2-b]pyridine] | 500 to 3000 | 500 to 3000 | 100 to 499 | 100 to 499
19 | Cn1cc(-c2ccc3scc(-c4ccns4)c3n2)cn1 [Preparative Example 67, 3-(isothiazol-5-yl)-5-(1-methyl-1H-pyrazol-4-yl)thieno[3,2-b]pyridine] | 20 to 99 | 500 to 3000 | 100 to 499 | 20 to 99
